In PMC11819763, “Activity of Potassium Channel BmK-NSPK Inhibitor Regulated by Basic Amino Acid Residues: Novel Insight into the Diverse Peptide Pharmacology” (Molecules, 2025):
Read-outs that look alike come from different tables or passages of the source. Positions of bridges follow the written chain, without caps; N, C: chain ends. Residues, ends and D or L forms follow the SMILES beside them.

How the values were obtained:
[1] = system: hKv1.3-M2 channel (filter region of hKv1.3 substituted by hKv1.2 region); test: Whole-cell patch clamp, chimeric hKv1.3-M2 channel currents; type: cell-based, human; details: mean ± SE, n ≥ 3, SEM
Method: Apart from the chimeric hKv1.3-M1, this work further constructed the chimeric hKv1.3-M2 channel, in which the filter region of hKv1.3 channel was substituted by the equivalent region of hKv1.2 channel (Figure 6A). Pharmacological experiments 100 nM and 1 μM MeuKTX were able to inhibit 78.3 ± 4.9% and 95.9 ± 1.3% of hKv1.3-M2 channel currents, respectively, which indicated the minor effect of channel filter region on MeuKTX binding (Figure 6B). However, more significant effects were also observed for BmK-NSPK analogs with different numbers of basic residues.
(§1) The pRc/CMV-hKv1.3 was kindly provided by Professor Stephan Grissmer (University of Ulm, Ulm, Germany) and Professor Olaf Pongs (Zentrum für Molekulare Neurobiologie der Universität Hamburg, Hamburg, Germany). The cDNAs encoding hKv1.1 and hKv1.2 (from Professor Stephan Grissmer, University of Ulm, Ulm, Germany) were subcloned into the vector pIRES2-EGFP (TaKaRa Clontech, Mountain View, CA, USA). The cDNAs encoding hKv1.6 were subcloned into the vector pcDNA 3.1(+) (TaKaRa Clontech, Mountain View, CA, USA). A QuikChange Site-Directed Mutagenesis Kit (Stratagene, La Jolla, CA, USA) was used to produce the mutants based on the wild-type hKv1.3 channel plasmids. All plasmids and their mutants were verified by DNA sequencing before the expression. The three channel chimeras were, respectively, named by hKv1.3-M1 (425DPTSGFS432 → 425ERESQFP432), hKv1.3-M2 (452HPV456 → 452VPT456) and hKv1.3-M3 (425DPTSGFS432 → 425ERESQFP432, 452HPV456 → 452VPT456).
(§2) In a 5% CO2 incubator at 37 °C, HEK293T cells were cultured in DMEM medium (Gibco, Grand Island, NY, USA) supplemented with 10% fetal bovine serum and 1% penicillin/streptomycin. Potassium channel plasmids and pEGFP-N1 were co-transfected into the HEK293 cells using the ExFect Transfection Reagent (Vazyme, Nanjin, China). After one day of transfection, the potassium currents were recorded, and the positive cells were selected based on the presence of GFP fluorescence.
(§3) Whole-cell current measurement and data acquisition were performed using an EPC-10 patch-clamp amplifier controlled by Pulse (HEKA Elektronik, Lambrecht, Germany). The potassium currents were recorded according to the recording protocol for the Kv1 channel, as described in previously published references. Peptides were dissolved in an external solution containing 0.01% BSA for electrophysiological experiments. The patch pipette solution contained 140 mM KF (Sigma, St. Louis, MC, USA), 2 mM MgCl2 (Sinopharm Chemical Reagent Co., Ltd., Shanghai, China), 1 mM EGTA (Sigma) and 10 mM HEPES (neoFroxx, Einhausen, Hessen, Germany) (pH adjusted to 7.4 with KOH (Sinopharm Chemical Reagent Co., Ltd., Shanghai, China)), and the bath solution contained 4.5 mM KCl, 160 Mm NaCl (Sinopharm Chemical Reagent Co., Ltd., Shanghai, China), 5 mM HEPES, 2 mM CaCl2 (Sinopharm Chemical Reagent Co., Ltd., Shanghai, China) and 1 mM MgCl2 (pH adjusted to 7.4 with NaOH (Sinopharm Chemical Reagent Co., Ltd., Shanghai, China)).
(§4) Graphing and data analysis were conducted using GraphPad Prism software (Version 8.0, San Diego, CA, USA), ClampFit software (version 10.2, Molecular Devices, Sunnyvale, CA, USA), and SigmaPlot software (version 12.0, IBM SPSS, Chicago, IL, USA). The dose–response relationship between the channel current and peptide inhibition was modeled by the modified Hill equation: Ipeptide/Icontrol = 1/{1 + [peptide]/IC50}, where Ipeptide represents the potassium current under peptide inhibition, Icontrol represents the peak current, IC50 is the half-maximal inhibition concentration and [peptide] represents the peptide concentration. The IC50 was obtained by fitting the Hill equation. Results are presented as mean ± SE, with each sample tested on at least three cells (n ≥ 3).

hKv1.6 channel = test: Whole-cell patch clamp, hKv1.6 channel currents; type: cell-based, human; details: 1 μM peptide, mean ± SE, n ≥ 3, SEM
Description: as §1, §2
(§5) Whole-cell current measurement and data acquisition were performed using an EPC-10 patch-clamp amplifier controlled by Pulse (HEKA Elektronik, Lambrecht, Germany). The potassium currents were recorded according to the recording protocol for the Kv1 channel, as described in previously published references. Peptides were dissolved in an external solution containing 0.01% BSA for electrophysiological experiments. […]

hKv1.1 channel = test: Whole-cell patch clamp, hKv1.1 channel currents; type: cell-based, human; details: 1 μM peptide, mean ± SE, n ≥ 3, SEM
Description: as §1, §2, §5

hKv1.2 channel = test: Whole-cell patch clamp, hKv1.2 channel currents; type: cell-based, human; details: 1 μM peptide, mean ± SE, n ≥ 3, SEM
Description: as §1, §2, §5

[2] = system: hKv1.3-M3 channel (turret, pore helix and filter region of hKv1.3 replaced by hKv1.2 regions); test: Whole-cell patch clamp, chimeric hKv1.3-M3 channel currents; type: cell-based, human; details: mean ± SE, n ≥ 3, SEM
Description: as §1, §2, §3, §4

[3] = system: hKv1.3-M1 channel (turret domain of hKv1.3 substituted by hKv1.2 region); test: Whole-cell patch clamp, chimeric hKv1.3-M1 channel currents; type: cell-based, human; details: mean ± SE, n ≥ 3, SEM
Method: In order to further investigate the effect of basic residue number on BmK-NSPK pharmacology, the activities of BmK-NSPK analogs were also tested on the Kv1.3 channel chimeras in this work. […] Based on the weak inhibition potencies of BmK-NSPK-7K and BmK-NSPK-8K towards hKv1.2 channel (Figure 5C,D), the work first constructed the chimeric hKv1.3-M1, in which the turret domain of hKv1.3 channel was substituted by the equivalent region of hKv1.2 channel (Figure 6A). Pharmacological experiments with 100 nM and 1 μM MeuKTX were able to inhibit 45.7 ± 7.9% and 82.8 ± 6.1% of hKv1.3-M1 channel currents, respectively (Figure 6B).
as §1, §2, §3, §4

hKv1.3 channel = target: T1, hKv1.3 channel (Homo sapiens, UniProt P22001); test: Whole-cell patch clamp, hKv1.3 channel currents in HEK293T cells; type: cell-based; details: from IC50 values on hKv1.3 channel
T1 construct: expressed in transfected cells; host or cells: HEK293T cells, co-transfected with pEGFP-N1
Description: In order to verify the differential pharmacological activities between BmK-NSPK, MeuKTX, KTX-2 and KTX-3, their recombinant peptides were produced according to our previous procedure. […] Then, MALDI-TOF-MS was further used to analyze BmK-NSPK. The determined molecular mass was […], which well corresponds to its calculated value of 3659.8 Da. The circular dichroism (CD) spectra also indicated the overall similarity to the secondary structures between BmK-NSPK, MeuKTX, KTX-2 and KTX-3 peptides. […] Subsequently, the patch clamp technique was used to characterize the pharmacological activities of BmK-NSPK, MeuKTX, KTX-2 and KTX-3 peptides according to our previously described procedure. […]
as §2, with “Potassium channel plasmids and pEGFP-N1 were co-transfected into the HEK293 cells using the ExFect Transfection Reagent (Vazyme, Nanjin, China).” left out
as §5, with “references.” for “references. Peptides were dissolved in an external solution containing 0.01% BSA for electrophysiological experiments.”

hKv1.2 channel (human) = hKv1.2 channel (human) (UniProt P16389)
hKv1.6 channel (human) = hKv1.6 channel (human) (UniProt P17658)
hKv1.1 channel (human) = hKv1.1 channel (human) (UniProt Q09470)
[4] = target: human Kv1.3 potassium channel (human) (UniProt P22001)
[5] = target: human Kv1.3 potassium channel (human) (UniProt P22001); remark: listed apart in the source

Chain of human Kv1.3 potassium channel (human) (P22001 whole entry): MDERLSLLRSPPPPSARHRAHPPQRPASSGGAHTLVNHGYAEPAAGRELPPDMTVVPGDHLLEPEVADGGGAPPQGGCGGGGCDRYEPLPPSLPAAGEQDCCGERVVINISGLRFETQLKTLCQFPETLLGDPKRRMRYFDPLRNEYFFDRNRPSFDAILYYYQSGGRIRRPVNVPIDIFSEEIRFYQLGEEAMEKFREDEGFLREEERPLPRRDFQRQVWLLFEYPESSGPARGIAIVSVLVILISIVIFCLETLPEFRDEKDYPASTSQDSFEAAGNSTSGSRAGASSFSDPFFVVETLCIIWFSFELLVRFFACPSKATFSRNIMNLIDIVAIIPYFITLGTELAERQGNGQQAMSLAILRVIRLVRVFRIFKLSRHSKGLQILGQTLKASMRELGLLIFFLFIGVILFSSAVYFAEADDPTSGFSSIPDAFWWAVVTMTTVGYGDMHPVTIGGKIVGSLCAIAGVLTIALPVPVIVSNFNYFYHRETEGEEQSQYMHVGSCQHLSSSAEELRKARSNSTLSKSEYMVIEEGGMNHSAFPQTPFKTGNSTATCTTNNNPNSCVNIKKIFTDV
Chain of hKv1.6 channel (human) (P17658 whole entry): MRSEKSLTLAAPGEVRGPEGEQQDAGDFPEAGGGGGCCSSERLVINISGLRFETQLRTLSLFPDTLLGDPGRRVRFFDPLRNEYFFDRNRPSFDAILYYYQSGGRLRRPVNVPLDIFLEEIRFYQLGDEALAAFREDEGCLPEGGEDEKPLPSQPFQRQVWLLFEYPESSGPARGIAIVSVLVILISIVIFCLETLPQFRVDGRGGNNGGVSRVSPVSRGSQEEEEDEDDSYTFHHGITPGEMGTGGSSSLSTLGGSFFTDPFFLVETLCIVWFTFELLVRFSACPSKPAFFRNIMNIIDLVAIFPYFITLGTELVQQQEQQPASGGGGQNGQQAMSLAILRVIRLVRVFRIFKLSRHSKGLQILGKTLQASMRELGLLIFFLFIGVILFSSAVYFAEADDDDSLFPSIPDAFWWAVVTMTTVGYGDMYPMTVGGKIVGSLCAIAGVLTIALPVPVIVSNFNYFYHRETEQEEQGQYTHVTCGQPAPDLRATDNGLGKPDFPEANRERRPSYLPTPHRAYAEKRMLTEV
Chain of hKv1.2 channel (human) (P16389 whole entry): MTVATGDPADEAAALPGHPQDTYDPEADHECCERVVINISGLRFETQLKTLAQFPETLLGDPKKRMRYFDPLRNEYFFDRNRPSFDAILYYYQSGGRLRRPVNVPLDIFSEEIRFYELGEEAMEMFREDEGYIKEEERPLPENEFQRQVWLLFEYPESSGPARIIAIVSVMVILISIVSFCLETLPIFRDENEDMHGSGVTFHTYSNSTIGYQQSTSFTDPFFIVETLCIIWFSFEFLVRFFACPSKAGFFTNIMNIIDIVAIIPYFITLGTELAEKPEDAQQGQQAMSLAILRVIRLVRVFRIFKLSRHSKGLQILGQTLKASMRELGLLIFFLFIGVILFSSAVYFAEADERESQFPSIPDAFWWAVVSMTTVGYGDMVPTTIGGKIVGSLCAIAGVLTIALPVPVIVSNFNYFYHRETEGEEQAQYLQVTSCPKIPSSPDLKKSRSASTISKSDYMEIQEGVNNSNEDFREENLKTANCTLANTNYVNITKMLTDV
Chain of hKv1.1 channel (human) (Q09470 whole entry): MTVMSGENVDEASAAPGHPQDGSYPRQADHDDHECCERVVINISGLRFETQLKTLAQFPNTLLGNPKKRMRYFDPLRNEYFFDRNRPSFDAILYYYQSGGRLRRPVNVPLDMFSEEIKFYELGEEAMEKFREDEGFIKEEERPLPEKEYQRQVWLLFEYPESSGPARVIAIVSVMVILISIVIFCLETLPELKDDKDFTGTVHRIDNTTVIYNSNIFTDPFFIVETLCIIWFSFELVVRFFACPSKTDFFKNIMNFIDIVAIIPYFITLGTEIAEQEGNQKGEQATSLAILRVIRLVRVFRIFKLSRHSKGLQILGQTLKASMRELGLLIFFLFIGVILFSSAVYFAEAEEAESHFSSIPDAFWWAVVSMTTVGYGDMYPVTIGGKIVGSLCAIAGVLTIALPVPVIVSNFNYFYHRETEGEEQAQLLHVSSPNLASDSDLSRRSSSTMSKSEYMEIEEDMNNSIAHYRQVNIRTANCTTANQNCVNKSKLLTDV
T1 sequence (P22001 whole entry): as the sequence (P22001 whole entry) above

Compound	inhibition of hKv1.3-M2 channel currents ([1]; 100 nM peptide) [%]	inhibition of hKv1.3-M2 channel currents ([1]; 1 μM peptide) [%]	inhibition of hKv1.6 channel currents (hKv1.6 channel) [%]	inhibition of hKv1.1 channel currents (hKv1.1 channel) [%]	inhibition of hKv1.2 channel currents (hKv1.2 channel) [%]	inhibition of hKv1.3-M3 channel currents ([2]; 100 nM peptide) [%]	inhibition of hKv1.3-M3 channel currents ([2]; 1 μM peptide) [%]	inhibition of hKv1.3-M1 channel currents ([3]; 100 nM peptide) [%]	inhibition of hKv1.3-M1 channel currents ([3]; 1 μM peptide) [%]	fold decreased activity on hKv1.3 compared with BmK-NSPK-7K (hKv1.3 channel)	inhibition of hKv1.2 channel currents by 1 μM peptide (whole-cell patch clamp, HEK293T) (hKv1.2 channel (human)) [%]	inhibition of hKv1.6 channel currents by 1 μM peptide (whole-cell patch clamp, HEK293T) (hKv1.6 channel (human)) [%]	inhibition of hKv1.1 channel currents by 1 μM peptide (whole-cell patch clamp, HEK293T) (hKv1.1 channel (human)) [%]	inhibition of hKv1.3 channel currents by 1 μM peptide (whole-cell patch clamp, HEK293T) [4] [%]	inhibition of hKv1.3 channel currents by 1 μM peptide (whole-cell patch clamp, HEK293T) [5] [%]	IC50 of inhibition of hKv1.3 channel currents (whole-cell patch clamp, HEK293T) [4] [nM]
CC[C@H](C)[C@H](NC(=O)CNC(=O)[C@@H](N)C(C)C)C(=O)N[C@@H](CC(N)=O)C(=O)N[C@H](C(=O)N[C@@H](CCCCN)C(=O)N[C@H]1CSSC[C@@H]2NC(=O)[C@H](CCCCN)NC(=O)CNC(=O)[C@H](Cc3ccccc3)NC(=O)[C@H](CCCNC(=N)N)NC(=O)[C@H](CCSC)NC(=O)CNC(=O)[C@H](C)NC(=O)[C@H](CC(=O)O)NC(=O)[C@H](CCCCN)NC(=O)[C@@H]3CSSC[C@@H](C(=O)N[C@H](C(=O)N4CCC[C@H]4C(=O)N[C@@H](CCCCN)C(=O)NCC(=O)O)[C@@H](C)O)NC(=O)[C@H](CC(=O)O)NC(=O)[C@H](CSSC[C@H](NC(=O)[C@H](CCC(N)=O)NC(=O)CNC(=O)[C@H](CO)NC(=O)[C@H](Cc4c[nH]cn4)NC(=O)[C@H](CCCCN)NC1=O)C(=O)N[C@@H](CC(C)C)C(=O)N[C@@H](CCCCN)C(=O)N1CCC[C@H]1C(=O)N3)NC(=O)[C@H](CCCCN)NC(=O)CNC(=O)[C@H](CC(N)=O)NC(=O)[C@H](CCSC)NC2=O)C(C)C [BmK-NSPK-7K] (H-VGINVKCKHSGQCLKPCKDAGMRFGKCMNGKCDCTPKG-OH; disulfide 7-27, 13-32, 17-34 (inferred); N-terminus and C-terminus assumed)	35.4 ± 6.7	72.9 ± 7.0	79.2 ± 2.4	84.1 ± 7.0	9.2 ± 0.6	1.2 ± 0.21	7.4 ± 0.64	23.4 ± 3.4	78.8 ± 3.4							
CSCC[C@@H]1NC(=O)CNC(=O)[C@H](C)NC(=O)[C@H](CC(=O)O)NC(=O)[C@H](CCCCN)NC(=O)[C@@H]2CSSC[C@@H](C(=O)N[C@H](C(=O)N3CCC[C@H]3C(=O)N[C@@H](CCCCN)C(=O)NCC(=O)O)[C@@H](C)O)NC(=O)[C@H](CC(=O)O)NC(=O)[C@@H]3CSSC[C@H](NC(=O)[C@H](CCC(N)=O)NC(=O)CNC(=O)[C@H](CO)NC(=O)[C@H](Cc4c[nH]cn4)NC(=O)[C@H](CCCCN)NC(=O)[C@@H](NC(=O)[C@H](CCCCN)NC(=O)[C@@H](NC(=O)[C@H](CC(N)=O)NC(=O)[C@H](CCCCN)NC(=O)CNC(=O)[C@@H](N)C(C)C)C(C)C)CSSC[C@H](NC(=O)[C@H](CCCCN)NC(=O)CNC(=O)[C@H](Cc4ccccc4)NC(=O)[C@H](CCCNC(=N)N)NC1=O)C(=O)N[C@@H](CCSC)C(=O)N[C@@H](CC(N)=O)C(=O)NCC(=O)N[C@@H](CCCCN)C(=O)N3)C(=O)N[C@@H](CC(C)C)C(=O)N[C@@H](CCCCN)C(=O)N1CCC[C@H]1C(=O)N2 [BmK-NSPK-8K] (H-VGKNVKCKHSGQCLKPCKDAGMRFGKCMNGKCDCTPKG-OH; disulfide 7-27, 13-32, 17-34 (inferred); N-terminus and C-terminus assumed)	8.8 ± 2.6	51.3 ± 1.5	34.1 ± 4.8	84.3 ± 1.8	12.3 ± 1.8	2.7 ± 0.92	5.1± 1.4	4.5 ± 1.2	27.7 ± 4.0	~ 10 fold						
CC[C@H](C)[C@H](NC(=O)CNC(=O)[C@@H](N)C(C)C)C(=O)N[C@@H](CC(N)=O)C(=O)N[C@H](C(=O)N[C@@H](CCCCN)C(=O)N[C@H]1CSSC[C@@H]2NC(=O)[C@H](CCCCN)NC(=O)CNC(=O)[C@H](Cc3ccccc3)NC(=O)[C@H](CCCNC(=N)N)NC(=O)[C@H](CCSC)NC(=O)CNC(=O)[C@H](C)NC(=O)[C@H](CC(=O)O)NC(=O)[C@H](CCCCN)NC(=O)[C@@H]3CSSC[C@@H](C(=O)N[C@H](C(=O)N4CCC[C@H]4C(=O)N[C@@H](CCCCN)C(=O)O)[C@@H](C)O)NC(=O)[C@H](CC(=O)O)NC(=O)[C@H](CSSC[C@H](NC(=O)[C@H](CCC(N)=O)NC(=O)CNC(=O)[C@H](CO)NC(=O)[C@H](Cc4c[nH]cn4)NC(=O)[C@H](CCCCN)NC1=O)C(=O)N[C@@H](CC(C)C)C(=O)N[C@@H](CCCCN)C(=O)N1CCC[C@H]1C(=O)N3)NC(=O)[C@H](CCCCN)NC(=O)CNC(=O)[C@H](CC(N)=O)NC(=O)[C@H](CCSC)NC2=O)C(C)C [MeuKTX, reference compound] (H-VGINVKCKHSGQCLKPCKDAGMRFGKCMNGKCDCTPK-OH; disulfide 7-27, 13-32, 17-34 (inferred); N-terminus and C-terminus assumed)	78.3 ± 4.9	95.9 ± 1.3	77.4 ± 2.7	90.7 ± 1.1	14.6 ± 2.6	3.9 ± 0.21	16.1 ± 2.0	45.7 ± 7.9	82.8 ± 6.1							
BmK-NSPK peptide											1.7	5.4	1.2	2.3		
BmK-NSPK-I18K/I26K/K28M (peptide)															26.5	
MeuKTX peptide											14.6	77.4	90.7			2.63
